We go through nine compounds from ChEMBL document CHEMBL3871296, “Phytochemical and cytotoxic studies on the roots of Euphorbia fischeriana” (Bioorg Med Chem Lett, 2017).

Assay [1] in a line: Cytotoxicity against human Hep3B cells assessed as cell growth inhibition by MTT assay. Format: functional, cell-based, Hep 3B2. (In general: Tetrazolium assays rely on reduction of a dye to a coloured formazan, in cell work by metabolically active cells.)
Assay [2] can be described thus: Cytotoxicity against human A549 cells assessed as cell growth inhibition by MTT assay. Type of assay: functional, cell-based.

The IC50 is the concentration that gives 50% inhibition. Take `CC1(C)[C@H](O)CC[C@]2(C)[C@@H]1CC[C@@]13CC[C@@H](C[C@@H]12)[C@](O)(CO)C3`: the IC50 in assay [1] and in assay [2] was above 100 µM in each case.

`CC1(C)C(=O)CC[C@]2(C)[C@@H]1CC[C@]13C[C@H](CO)[C@@H](CC[C@H]12)C3`: the IC50 in assay [1] and in assay [2] was above 100 µM each time.

Consider `C=C1C[C@@]23CC[C@@H]4C(C)(C)[C@H](O)CC[C@@]4(C)[C@H]2C[C@@H]1CC3=O`, for which the IC50 in assay [1] and in assay [2] was above 100 µM in each case.

In the case of `O=c1[nH]cc(F)c(=O)[nH]1` [FLUOROURACIL], the IC50 in assay [1] was 9.36 µM; in assay [2] it was 16.6 µM.

Regarding `C=C(C)[C@@H]1CC[C@]2(C)CC[C@]3(C)[C@H](CC[C@@H]4[C@@]5(C)CC[C@H](OC(C)=O)C(C)(C)[C@@H]5CC[C@]43C)[C@@H]12` [LUPENYL ACETATE], the values for the IC50 in assay [1] and in assay [2] were 18.7 µM and 29.8 µM, respectively.

On to `CC1(C)CC[C@]2(C)CC[C@]3(C)C(=CC=C4[C@@]5(C)C[C@@H](O)[C@H](O)C(C)(C)[C@@H]5CC[C@]43C)[C@@H]2C1`, for which the IC50 in assay [1] came out at 12.5 µM; in assay [2], 11.9 µM.

On to `OCC(O)C(O)C(O)c1cncc(-c2ccco2)n1` (stereo not drawn), for which the IC50 in assay [1] and in assay [2] was above 100 µM throughout.

As to `CCCCCCCCCCCCCCCC(=O)O[C@@]12C[C@@H](C)[C@@]3(O)[C@@H](C=C(C=O)C[C@]4(O)C(=O)C(C)=C[C@@H]34)[C@@H]1C2(C)C`, the IC50 amounted to 12 µM in assay [1] and 9.38 µM in assay [2].

With `CC1(C)OC[C@@]2(C[C@@]34CC[C@H]5C(C)(C)C(=O)CC[C@]5(C)[C@H]3CC[C@H]2C4)O1`, the IC50 is 8.15 µM in assay [1] and above 100 µM in assay [2].
